Activity calls are given as the source filed them. The rule behind the calls is not given here.
Assays:
Cynomolgus monkey [1] = assay: Elevation of IFNalpha in cynomolgus monkey plasma at 5 mg/kg, sc after 24 hrs; assay type: functional, organism-based; set-up: dose 5 mg/kg; conditions: Macaca fascicularis
Cynomolgus monkey [2] = assay: Increase in CD69 expression on CD3+ lymphocytes in cynomolgus monkey at 5 mg/kg, sc after 24 hrs by flow cytometry relative to control; assay type: functional, organism-based; set-up: dose 5 mg/kg; conditions: Macaca fascicularis
PBMC [3] = assay: Induction of IFN-gamma secretion in human PBMC after 24 hrs by Luminex Multiplex assay; assay type: functional, cell-based
Cynomolgus monkey [4] = assay: Elevation of IP10 in cynomolgus monkey plasma at 5 mg/kg, sc after 24 hrs; assay type: functional, organism-based; set-up: dose 5 mg/kg; conditions: Macaca fascicularis
PBMC [5] = assay: Induction of IL10 secretion in human PBMC after 24 hrs by Luminex Multiplex assay; assay type: functional, cell-based
Cynomolgus monkey [6] = assay: Increase in CD69 expression on CD16+ NK cells in cynomolgus monkey at 5 mg/kg, sc after 24 hrs by flow cytometry relative to control; assay type: functional, organism-based; set-up: dose 5 mg/kg; conditions: Macaca fascicularis
[7] = biological target: T1, Toll-like receptor 7 (Homo sapiens) (UniProt Q9NYK1); assay: Activation of human TLR7 expressed in HEK293 cells assessed as increase in NF-kappaB activation at 100 ug/ml by SEAP assay; assay type: cell-based
T1 sequence (whole entry): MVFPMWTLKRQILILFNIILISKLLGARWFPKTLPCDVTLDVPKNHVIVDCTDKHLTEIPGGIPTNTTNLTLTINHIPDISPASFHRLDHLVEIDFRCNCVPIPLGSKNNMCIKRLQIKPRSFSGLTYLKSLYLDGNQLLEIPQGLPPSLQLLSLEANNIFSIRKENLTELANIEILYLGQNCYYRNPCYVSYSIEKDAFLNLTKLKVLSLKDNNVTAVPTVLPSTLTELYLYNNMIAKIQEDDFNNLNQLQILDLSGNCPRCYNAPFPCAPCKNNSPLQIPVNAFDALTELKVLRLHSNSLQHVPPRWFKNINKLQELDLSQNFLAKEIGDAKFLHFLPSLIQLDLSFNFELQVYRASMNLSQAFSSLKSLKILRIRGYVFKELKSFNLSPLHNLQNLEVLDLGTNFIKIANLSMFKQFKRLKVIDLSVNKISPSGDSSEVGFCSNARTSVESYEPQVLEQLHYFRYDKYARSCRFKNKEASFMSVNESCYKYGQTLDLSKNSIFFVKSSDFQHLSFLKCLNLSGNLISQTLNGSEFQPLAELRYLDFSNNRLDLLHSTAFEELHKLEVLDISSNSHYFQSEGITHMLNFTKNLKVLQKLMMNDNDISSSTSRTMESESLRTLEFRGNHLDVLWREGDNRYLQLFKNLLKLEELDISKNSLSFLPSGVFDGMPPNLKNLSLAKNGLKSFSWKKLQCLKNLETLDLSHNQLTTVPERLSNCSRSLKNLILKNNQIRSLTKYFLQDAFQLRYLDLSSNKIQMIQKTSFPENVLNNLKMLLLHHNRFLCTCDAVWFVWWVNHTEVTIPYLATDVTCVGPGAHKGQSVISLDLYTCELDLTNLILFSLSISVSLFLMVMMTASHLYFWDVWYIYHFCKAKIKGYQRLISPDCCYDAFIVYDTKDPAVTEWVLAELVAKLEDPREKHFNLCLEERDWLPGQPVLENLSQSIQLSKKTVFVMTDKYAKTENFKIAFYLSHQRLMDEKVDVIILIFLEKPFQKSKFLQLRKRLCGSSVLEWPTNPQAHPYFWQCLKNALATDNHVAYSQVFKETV

[8] = Stability in 1% human serum assessed as full length product after 10 mins; assay type: ADME, cell-free; conditions: read-out: Stability
PBMC [9] = assay: Induction of IL1-beta secretion in human PBMC after 24 hrs by Luminex Multiplex assay; assay type: functional, cell-based
PBMC [10] = assay: Induction of IFNalpha secretion in human PBMC after 24 hrs by Luminex Multiplex assay; assay type: functional, cell-based
PBMC [11] = assay: Induction of IL12 secretion in human PBMC after 24 hrs by Luminex Multiplex assay; assay type: functional, cell-based
Cynomolgus monkey [12] = assay: Increase in CD69 expression on CD14+ monocytes in cynomolgus monkey at 5 mg/kg, sc after 24 hrs by flow cytometry relative to control; assay type: functional, organism-based; set-up: dose 5 mg/kg; conditions: Macaca fascicularis
Cynomolgus monkey [13] = assay: Induction of immune response in cynomolgus monkey assessed as increase in number of peripheral blood monocytes at 5 mg/kg, sc within 24 hrs; assay type: functional, organism-based; set-up: dose 5 mg/kg; conditions: Macaca fascicularis
PBMC [14] = assay: Induction of IL2R secretion in human PBMC after 24 hrs by Luminex Multiplex assay; assay type: functional, cell-based
[15] = biological target: T2, Toll-like receptor 8 (Homo sapiens) (UniProt Q9NR97); assay: Activation of human TLR8 expressed in HEK293 cells assessed as increase in NF-kappaB activation at 100 ug/ml by SEAP assay; assay type: cell-based
T2 sequence (whole entry): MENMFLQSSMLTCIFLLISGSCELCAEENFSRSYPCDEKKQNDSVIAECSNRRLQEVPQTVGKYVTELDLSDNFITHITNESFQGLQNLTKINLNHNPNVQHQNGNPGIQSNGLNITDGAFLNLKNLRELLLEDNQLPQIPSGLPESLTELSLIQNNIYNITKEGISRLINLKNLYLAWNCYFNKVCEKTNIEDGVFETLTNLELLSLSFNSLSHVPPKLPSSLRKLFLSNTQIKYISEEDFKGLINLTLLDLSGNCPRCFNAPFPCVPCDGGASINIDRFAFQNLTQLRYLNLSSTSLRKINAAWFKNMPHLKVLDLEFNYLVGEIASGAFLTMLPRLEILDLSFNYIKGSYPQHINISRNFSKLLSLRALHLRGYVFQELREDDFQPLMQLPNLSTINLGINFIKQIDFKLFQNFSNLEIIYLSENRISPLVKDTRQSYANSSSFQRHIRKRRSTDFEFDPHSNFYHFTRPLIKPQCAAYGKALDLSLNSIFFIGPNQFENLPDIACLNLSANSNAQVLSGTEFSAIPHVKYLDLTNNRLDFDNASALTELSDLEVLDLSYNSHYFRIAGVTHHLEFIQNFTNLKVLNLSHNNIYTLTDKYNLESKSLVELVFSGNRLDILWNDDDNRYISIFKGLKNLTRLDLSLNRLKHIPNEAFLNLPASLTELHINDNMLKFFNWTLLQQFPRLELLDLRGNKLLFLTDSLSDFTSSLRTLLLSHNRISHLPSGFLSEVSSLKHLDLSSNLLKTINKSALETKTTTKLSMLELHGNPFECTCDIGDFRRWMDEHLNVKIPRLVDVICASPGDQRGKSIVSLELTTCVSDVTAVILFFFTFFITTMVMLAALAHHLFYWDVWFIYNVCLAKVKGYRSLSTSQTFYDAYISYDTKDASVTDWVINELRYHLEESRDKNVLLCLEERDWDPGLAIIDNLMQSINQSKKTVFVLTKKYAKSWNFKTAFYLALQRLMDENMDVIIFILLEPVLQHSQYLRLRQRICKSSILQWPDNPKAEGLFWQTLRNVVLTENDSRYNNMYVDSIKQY

Cynomolgus monkey [16] = assay: Induction of immune response in cynomolgus monkey assessed as increase in number of peripheral blood neutrophils at 5 mg/kg, sc within 24 hrs; assay type: functional, organism-based; set-up: dose 5 mg/kg; conditions: Macaca fascicularis
Mus musculus [17] = assay: Induction of chemokine secretion in C57BL/6 mouse plasma at 100 mg/kg, sc by Luminex Multiplex assay; assay type: functional, organism-based; set-up: dose 100 mg/kg
Mus musculus [18] = assay: Induction of IL12 secretion in sc dosed C57BL/6 mouse serum after 2 hrs by ELISA; assay type: functional, organism-based
Mus musculus [19] = assay: Induction of cytokine secretion in C57BL/6 mouse plasma at 100 mg/kg, sc by Luminex Multiplex assay; assay type: functional, organism-based; set-up: dose 100 mg/kg

| SMILES | Activity (Cynomolgus monkey [1]) | Activity (Cynomolgus monkey [2]) | Activity (PBMC [3]) | Activity (Cynomolgus monkey [4]) | Activity (PBMC [5]) | Activity (Cynomolgus monkey [6]) | Activity [7] | remaining at 10 min [8] [%] | Activity (PBMC [9]) | Activity (PBMC [10]) | Activity (PBMC [11]) | Activity (Cynomolgus monkey [12]) | Activity (Cynomolgus monkey [13]) | Activity (PBMC [14]) | Activity [15] | Activity (Cynomolgus monkey [16]) | Activity (Mus musculus [17]) | Activity (Mus musculus [18]) | Activity (Mus musculus [19]) |
| --- | --- | --- | --- | --- | --- | --- | --- | --- | --- | --- | --- | --- | --- | --- | --- | --- | --- | --- | --- |
| Nc1ccn([C@@H]2O[C@H](COP(O)(=S)O[C@H]3[C@@H](O)[C@H](n4cnc5c(=O)[nH]c(N)nc54)O[C@@H]3COP(O)(=S)O[C@H]3[C@@H](O)[C@H](n4ccc(=O)[nH]c4=O)O[C@@H]3COCCCO)[C@@H](OP(O)(=S)OC[C@H]3O[C@@H](n4ccc(=O)[nH]c4=O)[C@H](O)[C@@H]3OP(O)(=S)OC[C@H]3O[C@@H](n4cnc5c(=O)[nH]c(N)nc54)[C@H](O)[C@@H]3OP(O)(=S)OC[C@H]3O[C@@H](n4ccc(N)nc4=O)[C@H](O)[C@@H]3OP(O)(=S)OC[C@H]3O[C@@H](n4ccc(=O)[nH]c4=O)[C@H](O)[C@@H]3OP(O)(=S)OC[C@H]3O[C@@H](n4ccc(=O)[nH]c4=O)[C@H](O)[C@@H]3OP(O)(=S)OC[C@H]3O[C@@H](n4cnc5c(=O)[nH]c(N)nc54)[C@H](O)[C@@H]3OP(O)(=S)OC[C@H]3O[C@@H](n4ccc(=O)[nH]c4=O)[C@H](O)[C@@H]3OP(O)(=S)OC[C@H]3O[C@@H](n4cnc5c(=O)[nH]c(N)nc54)[C@H](O)[C@@H]3OP(O)(=S)OCC(O)COP(O)(=S)O[C@H]3[C@@H](O)[C@H](n4cnc5c(=O)[nH]c(N)nc54)O[C@@H]3COP(O)(=S)O[C@H]3[C@@H](O)[C@H](n4ccc(=O)[nH]c4=O)O[C@@H]3COP(O)(=S)O[C@H]3[C@@H](O)[C@H](n4cnc5c(=O)[nH]c(N)nc54)O[C@@H]3COP(O)(=S)O[C@H]3[C@@H](O)[C@H](n4ccc(=O)[nH]c4=O)O[C@@H]3COP(O)(=S)O[C@H]3[C@@H](O)[C@H](n4ccc(=O)[nH]c4=O)O[C@@H]3COP(O)(=S)O[C@H]3[C@@H](O)[C@H](n4ccc(N)nc4=O)O[C@@H]3COP(O)(=S)O[C@H]3[C@@H](O)[C@H](n4cnc5c(=O)[nH]c(N)nc54)O[C@@H]3COP(O)(=S)O[C@H]3[C@@H](O)[C@H](n4ccc(=O)[nH]c4=O)O[C@@H]3COP(O)(=S)O[C@H]3[C@@H](O)[C@H](n4ccc(N)nc4=O)O[C@@H]3COP(O)(=S)O[C@H]3[C@@H](O)[C@H](n4cnc5c(=O)[nH]c(N)nc54)O[C@@H]3COP(O)(=S)O[C@H]3[C@@H](O)[C@H](n4ccc(=O)[nH]c4=O)O[C@@H]3COCCCO)[C@H]2O)c(=O)n1 (stereo partly drawn) | Active | Active | Dose-dependent effect | Active | Dose-dependent effect | Active | inactive | 78 | Dose-dependent effect | Dose-dependent effect | Dose-dependent effect | Active | Active | Dose-dependent effect | Active | Active | – | – | – |
| Nc1ccn([C@@H]2O[C@H](COP(O)(=S)O[C@H]3[C@@H](O)[C@H](n4cnc5c(=O)[nH]c(N)nc54)O[C@@H]3COP(O)(=S)O[C@H]3[C@@H](O)[C@H](n4ccc(=O)[nH]c4=O)O[C@@H]3CO)[C@@H](OP(O)(=S)OC[C@H]3O[C@@H](n4ccc(=O)[nH]c4=O)[C@H](O)[C@@H]3OP(O)(=S)OC[C@H]3O[C@@H](n4cnc5c(=O)[nH]c(N)nc54)[C@H](O)[C@@H]3OP(O)(=S)OC[C@H]3O[C@@H](n4ccc(N)nc4=O)[C@H](O)[C@@H]3OP(O)(=S)OC[C@H]3O[C@@H](n4ccc(=O)[nH]c4=O)[C@H](O)[C@@H]3OP(O)(=S)OC[C@H]3O[C@@H](n4ccc(=O)[nH]c4=O)[C@H](O)[C@@H]3OP(O)(=S)OC[C@H]3O[C@@H](n4cnc5c(=O)[nH]c(N)nc54)[C@H](O)[C@@H]3OP(O)(=S)OC[C@H]3O[C@@H](n4ccc(=O)[nH]c4=O)[C@H](O)[C@@H]3OP(O)(=S)OC[C@H]3O[C@@H](n4cnc5c(=O)[nH]c(N)nc54)[C@H](O)[C@@H]3OP(O)(=S)OCC(O)COP(O)(=S)O[C@H]3[C@@H](O)[C@H](n4cnc5c(=O)[nH]c(N)nc54)O[C@@H]3COP(O)(=S)O[C@H]3[C@@H](O)[C@H](n4ccc(=O)[nH]c4=O)O[C@@H]3COP(O)(=S)O[C@H]3[C@@H](O)[C@H](n4cnc5c(=O)[nH]c(N)nc54)O[C@@H]3COP(O)(=S)O[C@H]3[C@@H](O)[C@H](n4ccc(=O)[nH]c4=O)O[C@@H]3COP(O)(=S)O[C@H]3[C@@H](O)[C@H](n4ccc(=O)[nH]c4=O)O[C@@H]3COP(O)(=S)O[C@H]3[C@@H](O)[C@H](n4ccc(N)nc4=O)O[C@@H]3COP(O)(=S)O[C@H]3[C@@H](O)[C@H](n4cnc5c(=O)[nH]c(N)nc54)O[C@@H]3COP(O)(=S)O[C@H]3[C@@H](O)[C@H](n4ccc(=O)[nH]c4=O)O[C@@H]3COP(O)(=S)O[C@H]3[C@@H](O)[C@H](n4ccc(N)nc4=O)O[C@@H]3COP(O)(=S)O[C@H]3[C@@H](O)[C@H](n4cnc5c(=O)[nH]c(N)nc54)O[C@@H]3COP(O)(=S)O[C@H]3[C@@H](O)[C@H](n4ccc(=O)[nH]c4=O)O[C@@H]3CO)[C@H]2O)c(=O)n1 (stereo partly drawn) | – | – | Dose-dependent effect | – | Dose-dependent effect | – | inactive | 74 | Dose-dependent effect | Dose-dependent effect | Dose-dependent effect | – | – | Dose-dependent effect | Active | – | inactive | inactive | inactive |

— ChEMBL document CHEMBL1156502, “Stabilized immune modulatory RNA compounds as agonists of Toll-like receptors 7 and 8” (Proc Natl Acad Sci U S A, 2007)
